# Reference: the supplement of paper PMC10307832
# What was measured:
# Test in all cases: relative viability (nuclei count vs DMSO), 5 days (fraction); higher = more cells survive
# [1] = compound: C1=CC=C(C(=C1)C2=CC=C(C=C2)C3=CSC4=C3C(=C(C(=O)N4)C#N)O)O + O=C(c1cc(Cc2n[nH]c(=O)c3ccccc23)ccc1F)N1CCN(C(=O)C2CC2)CC1 [Olaparib] (partner 8 µM)
# Outline: (§1)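 Lung cancer cell lines, seeded in 1536-well plates, were treated the following day by pin tool with a single drug or with five library-drug doses (not always all listed) in √10 steps on top of a fixed anchor-drug dose. Cells were fixed and nuclei stained in one step after 5 days, and nuclei were counted. Relative viability is the nuclei count for treated wells divided by that for vehicle wells, reported as medians of duplicate plates.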
# TGX 221 + Pemetrexed = compound: CC1=CN2C(=O)C=C(N=C2C(=C1)C(C)NC3=CC=CC=C3)N4CCOCC4 [TGX 221] + Nc1nc2[nH]cc(CCc3ccc(C(=O)N[C@@H](CCC(=O)O)C(=O)O)cc3)c2c(=O)[nH]1 [Pemetrexed] (partner 0.2 µM)
# Outline: as §1
# [2] = compound: O=C(CCCCCCNC(=O)c1cnc(N(c2ccccc2)c2ccccc2)nc1)NO [Ricolinostat] + CC(=O)Nc1cccc(-n2c(=O)n(C3CC3)c(=O)c3c(Nc4ccc(I)cc4F)n(C)c(=O)c(C)c32)c1 [Trametinib] (partner 0.02 µM)
# Outline: as §1
# TGX 221 + Pictilisib = compound: CC1=CN2C(=O)C=C(N=C2C(=C1)C(C)NC3=CC=CC=C3)N4CCOCC4 [TGX 221] + CS(=O)(=O)N1CCN(Cc2cc3nc(-c4cccc5[nH]ncc45)nc(N4CCOCC4)c3s2)CC1 [Pictilisib] (partner 1 µM)
# Outline: as §1
Cell Line,relative viability ([1]; first compound 0.08 µM),relative viability ([1]; first compound 0.253 µM),relative viability ([1]; first compound 0.8 µM),relative viability ([1]; first compound 2.53 µM),relative viability ([1]; first compound 8 µM),relative viability (TGX 221 + Pemetrexed; first compound 0.08 µM),relative viability (TGX 221 + Pemetrexed; first compound 0.253 µM),relative viability (TGX 221 + Pemetrexed; first compound 0.8 µM),relative viability (TGX 221 + Pemetrexed; first compound 2.53 µM),relative viability (TGX 221 + Pemetrexed; first compound 8 µM),relative viability ([2]; first compound 0.08 µM),relative viability ([2]; first compound 0.253 µM),relative viability ([2]; first compound 0.8 µM),relative viability ([2]; first compound 2.53 µM),relative viability (TGX 221 + Pictilisib; first compound 0.08 µM),relative viability (TGX 221 + Pictilisib; first compound 0.253 µM),relative viability (TGX 221 + Pictilisib; first compound 0.8 µM),relative viability (TGX 221 + Pictilisib; first compound 2.53 µM),relative viability (TGX 221 + Pictilisib; first compound 8 µM)
BEN,0.987,1.38,1.03,1.19,0.971,0.728,0.715,0.727,0.645,0.775,0.816,0.905,0.828,0.796,0.552,0.519,0.521,0.503,0.456
LC-2-ad,0.702,0.899,0.701,0.744,0.76,0.272,0.282,0.287,0.259,0.265,0.899,0.911,0.907,0.836,0.453,–,0.444,0.491,0.473
NCI-H650,0.42,0.375,0.402,0.495,0.432,0.87,0.894,0.919,0.882,0.926,0.853,0.908,0.909,0.874,0.893,0.768,0.831,0.92,0.777
NCI-H1563,–,–,–,–,–,0.646,0.705,0.534,0.726,0.733,–,–,–,–,0.651,0.622,0.573,0.634,0.638
NCI-H1793,0.929,0.937,0.867,0.882,0.78,0.667,0.64,0.754,0.604,0.68,0.327,0.389,0.435,0.444,0.274,0.303,0.317,0.413,0.291
HCC-78,0.815,1.4,0.91,0.787,0.711,0.827,0.928,0.771,0.877,0.921,–,0.782,0.768,0.601,0.242,0.179,–,0.231,0.231
LCLC-97TM1,0.223,0.357,0.431,0.429,0.445,0.167,0.169,0.173,0.197,0.179,0.195,0.182,0.25,0.287,0.197,0.196,0.165,0.164,0.188
NCI-H2009,0.649,0.668,0.924,0.591,0.714,0.943,1.06,1.08,1.1,0.938,0.158,0.262,0.294,0.353,0.814,0.746,0.893,0.774,0.662
H3255,0.612,0.67,0.524,0.624,0.574,0.54,0.71,0.487,0.562,0.539,0.571,0.644,0.677,0.76,0.466,0.445,0.45,0.492,0.539
